{
  "source": "patent US8685666B2",
  "about": "“ARL-1 specific antibodies and uses thereof” (The Board of Trustees of Southern Illinois University, priority 2007, dated 2014)",
  "key": {"[1]": {"system": "AKR1B10 (ARL-1) secretion", "test": "ARL-1 secretion into culture medium (sandwich ELISA and Western blot)", "assay_type": "cell-based, human", "protocol": "Soluble proteins are secreted by either the classical or nonclassical pathway (Nickel et al., Eur J. Biochem. 270: 2109-2119, 2003). In the classical protein secretion pathway, a secretory protein is translocated by an N-terminal signal peptide into endoplasmic reticulum and Golgi complex concomitant with protein synthesis. Thus, this pathway is affected by inhibitors of protein synthesis and protein transport from ER to Golgi. […] HCT-8 cells (1.25×10^5) were cultured in 12-well plates overnight and the next day the cells were exposed to 15 μg/ml of protein synthesis inhibitor cycloheximide in fresh serum-free medium. Medium was collected at different time points for sandwich ELISA and Western blot analysis. […] Next, the effects of an ER-Golgi pathway inhibitor were examined. HCT-8 and NCI-460 cells (1.25×10^5) were cultured in 12-well plates overnight and then exposed to an ER-Golgi protein transport inhibitor brefeldin A at 0, 2, or 10 μg/ml in fresh serum-free medium for 6 hour. Medium was collected for sandwich ELISA and Western blot analysis. […] Statistic analysis was performed using Student's t test or Chi square tests, as appropriate, with INSTAT statistical analysis package (Graph Pad Software, CA), for statistical significance at p<0.05.\nAt 30 min before harvest, ATP (1 mM) was added and the medium was subjected to sandwich ELISA and Western blot analysis. In addition, HCT-8 cells (1.25×10^5) were seeded into 12-well plates and exposed to Ca^2+ ions (100 μM) or ionomycin at 1 or 2 μM in serum-free medium for 30 min and the medium was harvested for sandwich ELISA and Western blot analysis. […]\nProteins that are secreted via the lysosome-mediated pathway are often translocated into lysosomes by the ABC transporters (Hamon et al., Blood 90: 2911-2915, 1997). To understand the transmembrane mechanism of ARL-1, HCT-8 cells (1.25×10^5) were cultured in 12-well plates overnight and then exposed to ABC transporter inhibitor GLIB (glibenclamide) or DIDS (4,4′-diisothiocyanatostilbene-2,2′-disulfonic acid) (Sigma, Mo.) in serum-free medium for 2 hours. ATP (1 mM) was added 30 min before harvest. Medium and cells were collected for sandwich ELISA and Western blot analysis."}, "HCT-8 cells": {"system": "HCT-8 cells", "test": "Mechanism of acrolein-induced cell death in HCT-8 cells with ARL-1 knockdown (flow cytometry, LDH efflux)", "assay_type": "cell-based, human", "conditions": "25 μM", "protocol": "The mechanisms of cell death induced by reactive carbonyls were investigated by flow cytometry and lactate dehydrogenase leakage assay. For flow cytometry assay, cells (with ARL-1 knockdown) were incubated with acrolein (25 μM) for 24 hours. After medium was gently removed, cells were washed with cold PBS and trypsinized. Cells in PBS and trypsin digestion were pooled, washed with PBS twice at 1200 rpm for 10 min, and then subjected to immediate propidium iodide (PI) and annexin V-FITC staining for 10 minutes in the dark as set forth in Yuan et al. (2004, Oncogene 23: 5843-5852, 2004). FACScan analysis was performed using a FACScan cytometer (Becton Dickinson, Calif.).\nFor lactate dehydrogenase (LDH) efflux assays, cells were plated at 5×10^4 cells/well in 12-well plates and exposed to 25 μM of acrolein for 12 hours. Medium was collected and cells were lysed for 10 min in 0.5% (v/v) Triton X-100 in 0.1 M potassium phosphate buffer (pH 7.4). Supernatants were collected by centrifugation at 10,000×g for 5 min. LDH activity in medium and cell lysates was measured using LDH assay kit (Roche, Ind.). […] Absorbance at 490 nm was read in a microplate reader (Bio-Rad, CA), with 650 nm as a reference wavelength. LDH release was calculated as: LDH release (%)=[LDH in medium/(LDH in medium+LDH in cell lysate)]×100 (Koh and Choi, 1987, J Neurosci Methods 20: 83-90)."}, "[2]": {"conditions": "HCT-8 cells, serum-free medium 30 min, Ca2+ ions 100 μM, ionomycin 1 or 2 μM"}, "[3]": {"conditions": "HCT-8 cells, serum-free medium, ATP 1 mM 30 min before harvest, Mg2+ 2 mM and/or EDTA 1 mM for 2 hours"}, "[4]": {"conditions": "HCT-8 cells, serum-free medium 2 hours, ATP 1 mM added 30 min before harvest"}},
  "note": "“Also recorded” adds a separate entry of the source.",
  "data": [
    {"molecule": "Nc1ncnc2c1ncn2[C@@H]1O[C@H](COP(=O)(O)OP(=O)(O)OP(=O)(O)O)[C@@H](O)[C@H]1O", "note": "[ATP]", "values": [
      {"measurement": "ARL-1 secretion", "setting": "[1]; [2]", "result": "synergistic role in Ca^2+-mediated stimulation"},
      {"measurement": "ARL-1 secretion", "setting": "[1]; [3]", "result": "significantly stimulated"}
    ]},
    {"molecule": "[Ca+2]", "note": "[Ca^2+ ions]", "values": [
      {"measurement": "ARL-1 secretion", "setting": "[1]; [2]", "result": "significantly stimulated"}
    ]},
    {"molecule": "O=S(=O)(O)c1cc(N=C=S)ccc1C=Cc1ccc(N=C=S)cc1S(=O)(=O)O", "note": "[DIDS, 4,4′-diisothiocyanatostilbene-2,2′-disulfonic acid]", "values": [
      {"measurement": "ARL-1 secretion", "setting": "[1]; [4]", "result": "suppressed"}
    ]},
    {"molecule": "COc1ccc(Cl)cc1C(=O)NCCc1ccc(S(=O)(=O)NC(=O)NC2CCCCC2)cc1", "note": "[GLIB, glibenclamide]", "values": [
      {"measurement": "ARL-1 secretion", "setting": "[1]; [4]", "result": "suppressed"}
    ]},
    {"molecule": "[Mg+2]", "note": "[Mg^2+]", "values": [
      {"measurement": "ARL-1 secretion", "setting": "[1]; [3]", "result": "blocked"}
    ]},
    {"molecule": "Cl.N", "note": "[NH4Cl]", "values": [
      {"measurement": "ARL-1 secretion", "setting": "[1]; 50 mM added simultaneously with the fresh serum-free medium", "result": "increased"},
      {"measurement": "ARL-1 in freshly fed serum-free medium compared with control", "setting": "[1]; 50 mM for 2 hours before switch to fresh serum-free medium", "result": "significant decrease"}
    ]},
    {"molecule": "C=CC=O", "note": "[acrolein]", "values": [
      {"measurement": "features of induced cell death", "setting": "HCT-8 cells", "result": "LDH efflux and annexin V staining, a characteristic of oncosis"}
    ]},
    {"molecule": "C[C@H]1CCC/C=C/[C@@H]2C[C@H](O)C[C@H]2[C@H](O)/C=C/C(=O)O1", "note": "[brefeldin A]", "values": [
      {"measurement": "ARL-1 secretion", "setting": "[1]; HCT-8 and NCI-460 cells, 0, 2, or 10 μg/ml, serum-free medium, 6 hour", "result": "not affected; also recorded: did not significantly affect secretion"}
    ]},
    {"molecule": "C[C@@H]1C[C@@H]([C@H](O)CC2CC(=O)NC(=O)C2)C(=O)[C@@H](C)C1", "note": "[cycloheximide]", "values": [
      {"measurement": "ARL-1 secretion", "setting": "[1]; HCT-8 cells, 15 μg/ml, serum-free medium, up to 8 hours", "result": "not affected; also recorded: did not significantly affect secretion"}
    ]},
    {"molecule": "C[C@H](CCC(=O)O)C[C@H](C)C[C@H](C)C(=O)/C=C(\\O)[C@H](C)C[C@H](C)C/C=C/[C@@H](C)[C@@H](O)[C@@H](C)[C@@H](O)C[C@@H]1CC[C@@](C)([C@H]2CC[C@@](C)([C@@H](C)O)O2)O1", "note": "[ionomycin]", "values": [
      {"measurement": "ARL-1 secretion", "setting": "[1]; [2]", "result": "significantly stimulated"}
    ]}
  ]
}
